Assay results reported in article PMC12631912, “A Multifunctional Molecular Probe for Multimodal Imaging‐Guided Potent Photothermal/Photodynamic Therapy of Endometriosis” (Advanced Science, 2025).

How the values were obtained:
Ishikawa cells [1] = assay: In vitro photothermal/photodynamic therapy, CCK-8 viability after laser; format: cell-based; conditions: CCK-8, 2 h incubation, 808 nm, 1.0 W cm^−2, 5 min, concentration of the quoted value not stated (range 2.5 to 50 µg mL^−1 ICG), mean ± SD, n = 4
Description: Ishikawa cells and EESCs were seeded in a 96‐well plate at a density of 1 × 10^4 cells per well and allowed to adhere overnight. […] Following this incubation, the cells were irradiated with an 808 nm laser (1.0 W cm^−2, 5 min). The viability of cells was measured using the CCK‐8 assay.

[2] = ROS generation in solution with DPBF indicator under 808 nm laser; format: physicochemical; conditions: C ICG = 10 µg mL^−1 in methanol, DPBF absorbance at 410 nm, 808 nm laser 1.0 W cm^−2, within 10 min
Description: The generation of ROS was quantified using DPBF as a probe. […] The gradual decrease in the UV absorption of DPBF was monitored using a UV–vis spectrophotometer, and the correlation between the UV absorbance values and the laser exposure time was recorded.

EMS lesions [3] = assay: In vivo infrared thermography of EMS lesions; set-up: species or system BALB/c nude mice; conditions: EMS nude mice, ICG 500 µg kg^−1 i.v., 1 h post-injection, 808 nm laser 1.0 W cm^−2, within 5 min; n = 3
Description: As shown in previous references,^[ [19] ^] to establish a xenograft EMS model in nude mice, female BALB/c nude mice (5‐6 weeks, 18‐20 g) served as recipients, and female Sprague–Dawley rats (7‐9 weeks, 200–240 g) with regular 4–5 days estrous cycles were selected as donors after a week of acclimatization. Prior to surgery, nude mice received daily intramuscular β‐estradiol 17‐pentanoate (0.25 µg g^−1) for 3 days. The EMS model was induced by subcutaneous transplantation of ≈40 mg of rat uterine fragments into nude mice. The uterine horns from euthanized donors were sterilely collected, bisected, minced, and suspended in DMEM/F12 medium before injection. Nude mice then received β‐estradiol 17‐pentanoate (0.25 µg g^−1) injections every 2 days, and endometriotic lesions reaching 100 mm^3 were used for subsequent experiments.
To investigate the photothermal heating efficacy at lesion sites in EMS mice, in vivo infrared thermography studies were conducted. […] Thermal responses were monitored in real‐time using a digital thermographic camera (Fluke Ti27, IR Fusion Technology, USA). Infrared thermal images were captured, and temperature measurements were recorded. The temporal correlation between temperature elevation and laser irradiation duration was analyzed using AnalyzIR software (4.0.0).

EESCs [4] = assay: Cellular internalization of probes by flow cytometry; format: cell-based, human; conditions: EESC, in Figure 3g
Description: (§1) Furthermore, the cellular internalization of the probes was quantitatively evaluated using flow cytometry. […] After these incubation periods, the cells were washed three times with PBS, trypsinized, and collected. The harvested cells were then analyzed using an Attune NxT flow cytometer (Invitrogen, USA). The data obtained was analyzed utilizing NovoExpress 1.4.0 software (Agilent, USA).

EMS lesions [5] = assay: In vivo T1-weighted MRI of EMS lesions; set-up: species or system Wistar female rats; conditions: EMS rats, 4.5 mg Gd per kg i.v., 30 min and 5 h post-injection, 3.0 T
Description: Prior to the imaging procedure, the rats were anesthetized through intraperitoneal injection of 1% sodium pentobarbital at a dosage of 45 mg kg^−1. Following anesthesia, the rats were positioned inside a 3.0 T MRI scanner sourced from the First Hospital of Sun Yat‐sen University.
Prior to drug administration, the rats underwent T 1‐weighted imaging using the fast spin‐echo sequence with the following parameters: TR = 400 ms; TE = 12 ms; FOV = 80 mm × 80 mm; matrix size = 672 × 672; voxel size = 0.24 mm × 0.24 mm; slice thickness = 1 mm; flip angle = 150°; and NSA = 5.
T 1‐weighted imaging using the fast spin‐echo sequence was repeated at 30 min and 5 h post‐injection, respectively, with adjusted parameters: TR = 425 ms; TE = 12 ms; FOV = 80 mm × 80 mm; matrix size = 384 × 384; voxel size = 0.42 mm × 0.42 mm; slice thickness = 1 mm; flip angle = 150°; and NSA = 7.

Ishikawa cells [6] = assay: Cellular internalization of probes by flow cytometry; format: cell-based; conditions: in Figure 3g
Description: as §1

[7] = In vivo fluorescence imaging, off-target effects and clearance in healthy mice; set-up: species or system BALB/c nude mice
EESCs [8] = assay: CCK-8 cytotoxicity without laser irradiation; format: cell-based, human; conditions: CCK-8, 24 h incubation, ICG concentration up to 300 µg mL^−1
Description: (§2) After 24 h, the medium was replaced with fresh medium containing 10% CCK‐8 reagent and incubated for an additional 2 h. The absorbance at 450 nm was measured using a Synergy 2 multimode microplate reader (BioTek, USA), with the wells without cells serving as blanks. All experiments were performed in triplicate.

Ishikawa cells [9] = assay: CCK-8 cytotoxicity without laser irradiation; format: cell-based; conditions: CCK-8, 24 h incubation, ICG concentration up to 300 µg mL^−1
Description: as §2

[10] = UV absorption and fluorescence emission spectra; format: physicochemical; conditions: in PBS, cRGD-ILD C ICG = 10 µg mL^−1, ICG 5 µg/mL
Description: The ^1H NMR spectra were conducted utilizing a Varian Unity 400 MHz Spectrometer ([…]) in a variety of deuterated solvents. ESI‐MS were obtained with a Thermo Scientific LTQ XL mass spectrometer (Thermo, USA). UV absorption spectra were measured by a Unico UV‐2000 UV–vis Spectrophotometer (Shanghai, China). Photoluminescence excitation and emission spectra were recorded using an FSP920‐combined Time Resolved and Steady State Fluorescence Spectrometer (Edinburgh, UK), equipped with a 450‐W xenon lamp. Both the UV and fluorescence spectrophotometers were scanned within the wavelength range of 650–850 nm.

[11] = C ICG = 2.5 µg mL^−1, 1 h incubation
[12] = C ICG = 2.5 µg mL^−1, 4 h incubation

| Substance | cell viability after laser irradiation (Ishikawa cells [1]) | reduction in DPBF absorbance (ROS generation) [2] | localized (maximum) temperature at the EMS lesion (EMS lesions [3]) | internalized probes by flow cytometry (EESCs [4]; [11]) | internalized probes by flow cytometry (EESCs [4]; [12]) | T 1-weighted signal intensity at the lesion site (EMS lesions [5]) | internalized probes by flow cytometry (Ishikawa cells [6]; [11]) | internalized probes by flow cytometry (Ishikawa cells [6]; [12]) | tissue distribution by serial in vivo fluorescence imaging ([7]; healthy BALB/c nude mice, ICG 1000 µg kg^−1 i.v.) | fluorescence signal as % of the 24 h level ([7]; healthy BALB/c nude mice, ICG 1000 µg kg^−1 i.v., within 7 days, n = 3) | ex vivo fluorescence of major organs ([7]; healthy nude mice, 10 days post-injection, heart, liver, spleen, lungs, kidneys) | cell viability without laser irradiation (EESCs [8]) | cell viability without laser irradiation (Ishikawa cells [9]) | fluorescence emission peak ([10]; λex = 755 nm) | absorption peak [10] |
| --- | --- | --- | --- | --- | --- | --- | --- | --- | --- | --- | --- | --- | --- | --- | --- |
| ICG‐lys‐DTPA@Gd [ILD] | 48.41 ± 1.74% | ~56% | 34.5 °C | 74.68% | 94.41% | no significant increase | 61.98% | 93.22% | – | – | – | – | – | – | – |
| c(RGDyK)‐ICG‐lys‐DTPA@Gd (head to tail) [cRGD‐ILD, targeting theranostic probe integrating cRGD peptide, ICG fragment and DTPA@Gd complex] | 23.8 ± 1.36% | ≈ 58% | – | – | – | notable enhancement | – | – | no specific tissue distribution | ≈ 14.75% | minimal residual fluorescence | above 90% | above 90% | 764 nm | 755 nm |
